Legend:
[1] = molecular target: T1, MAGL (Homo sapiens, UniProt Q99685); test: In vitro competitive activity-based protein profiling (human), MAGL; format: biochemical; details: for inhibition at 1 µM: 1 μM inhibitor, human proteome, 30 min preincubation at 37° C, read-out: MAGL % inh. 1 μM (human); for IC50: human PC3
T1 construct: Proteomes (human prefrontal cortex or cell membrane fractions); from tissue
T1 sequence (Q99685 1-303): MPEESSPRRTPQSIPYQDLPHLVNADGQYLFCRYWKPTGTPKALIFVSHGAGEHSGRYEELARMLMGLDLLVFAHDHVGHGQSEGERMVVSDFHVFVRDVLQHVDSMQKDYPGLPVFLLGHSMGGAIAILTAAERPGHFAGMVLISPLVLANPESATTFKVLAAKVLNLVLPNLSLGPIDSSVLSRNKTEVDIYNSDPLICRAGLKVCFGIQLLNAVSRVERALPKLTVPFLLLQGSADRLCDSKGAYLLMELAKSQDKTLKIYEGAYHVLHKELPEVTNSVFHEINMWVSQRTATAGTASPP
Method in brief: (§1)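 Human prefrontal cortex or cell membrane proteomes (1.0-2.0 mg/mL protein) preincubated 30 min at 37° C with inhibitor, then labeled 30 min RT with FP-Rh or JW912 probe. After SDS-PAGE, activity taken from fluorescent band intensity for each enzyme.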

[2] = molecular target: T2, ABHD6 (Homo sapiens, UniProt Q9BV23); test: In vitro competitive activity-based protein profiling (human), ABHD6; format: biochemical; details: human PC3
T2 construct: Proteomes (human prefrontal cortex or cell membrane fractions); endogenous in cells; human prefrontal cortex
T2 sequence (Q9BV23 1-337): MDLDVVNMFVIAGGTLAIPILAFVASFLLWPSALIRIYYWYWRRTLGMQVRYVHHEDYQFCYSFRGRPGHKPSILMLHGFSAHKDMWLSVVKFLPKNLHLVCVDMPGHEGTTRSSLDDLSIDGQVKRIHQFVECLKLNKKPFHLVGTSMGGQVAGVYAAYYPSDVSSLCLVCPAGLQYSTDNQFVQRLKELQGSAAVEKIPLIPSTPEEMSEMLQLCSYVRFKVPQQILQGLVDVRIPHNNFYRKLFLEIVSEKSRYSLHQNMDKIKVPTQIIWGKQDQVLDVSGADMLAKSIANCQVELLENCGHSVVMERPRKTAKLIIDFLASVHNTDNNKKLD
Method in brief: as §1

[3] = molecular target: T3, MAGL (Mus musculus, UniProt O35678); test: In vitro competitive activity-based protein profiling (mouse), MAGL; format: biochemical; details: for inhibition at 1 µM: 1 μM inhibitor, mouse brain membrane fraction or cell lysates, read-out: MAGL % inh. 1 μM (mouse); for IC50: mouse proteome
T3 construct: Proteomes (mouse brain membrane fraction or cell lysates); from tissue; host or cells: mouse brain membrane fraction or cell lysates
T3 sequence (O35678 1-303): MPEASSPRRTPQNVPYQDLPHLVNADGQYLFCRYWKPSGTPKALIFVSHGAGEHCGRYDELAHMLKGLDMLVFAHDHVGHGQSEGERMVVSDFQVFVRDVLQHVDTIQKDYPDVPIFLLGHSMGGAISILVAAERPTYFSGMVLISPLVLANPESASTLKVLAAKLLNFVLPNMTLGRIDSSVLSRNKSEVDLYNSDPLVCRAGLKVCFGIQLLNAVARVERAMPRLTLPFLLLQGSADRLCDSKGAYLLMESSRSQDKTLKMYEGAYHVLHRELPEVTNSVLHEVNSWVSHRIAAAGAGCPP
Method in brief: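 Mouse brain membrane fraction or cell lysate proteomes (50 μL, 1.0 mg/mL total protein) were preincubated with inhibitors at varying concentrations for 30 min at 37° C. FP-Rh (1.0 μL, 50 μM in DMSO) was then added for a further 30 min at 37° C. Samples were quenched with 4× SDS loading buffer and resolved by SDS-PAGE. MAGL activity was quantified from fluorescent gel band intensity using ImageJ 1.49 k.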

[4] = molecular target: T4, ABHD6 (Mus musculus, UniProt Q8R2Y0); test: In vitro competitive activity-based protein profiling (mouse), ABHD6; format: biochemical; details: 1 μM inhibitor, mouse brain membrane fraction or cell lysates; read-out: ABHD6 % inh. 1 μM (mouse)
T4 construct: Proteomes (mouse brain membrane fraction or cell lysates); from tissue; host or cells: mouse brain membrane fraction or cell lysates
T4 sequence (Q8R2Y0 1-336): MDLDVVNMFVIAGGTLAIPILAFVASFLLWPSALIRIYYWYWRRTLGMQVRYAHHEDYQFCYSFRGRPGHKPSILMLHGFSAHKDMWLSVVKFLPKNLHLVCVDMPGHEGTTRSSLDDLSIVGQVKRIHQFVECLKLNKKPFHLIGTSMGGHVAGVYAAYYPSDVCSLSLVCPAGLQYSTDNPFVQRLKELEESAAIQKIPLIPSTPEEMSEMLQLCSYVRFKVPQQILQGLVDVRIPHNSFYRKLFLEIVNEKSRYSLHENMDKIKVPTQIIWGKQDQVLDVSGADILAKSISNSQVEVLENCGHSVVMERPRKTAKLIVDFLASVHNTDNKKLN
Method in brief: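 Mouse brain membrane proteome or cell lysate (1.0 mg/mL protein) preincubated 30 min at 37 °C with inhibitor, then labelled 30 min at 37 °C with FP-rhodamine probe. Remaining MAGL and ABHD6 activity quantified by in-gel fluorescence band intensity after SDS-PAGE; values are % inhibition at 1 μM.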

[5] = molecular target: T3, MAGL; test: Mouse brain proteomes from inhibitor treated mice, MAGL inhibition; format: in vivo; details: 5 mg/kg oral gavage, C57Bl/6J mouse brain, 4 h following administration; read-out: MAGL % inh. 5 mg/kg (mouse)
Protocol: Preparation of Mouse Brain Proteomes from Inhibitor Treated Mice.
Inhibitors were administered to wild-type C57Bl/6J by oral gavage in a vehicle of polyethylene glycol. Each animal was sacrificed 4 h following administration and brain proteomes were prepared and analyzed according to previously established methods (See Niphakis, M. J., et al. (2011) ACS Chem. Neurosci. and Long, J. Z., et al. Nat. Chem. Biol. 5:37-44).

| SMILES | inhibition at 1 µM [1] | IC50 [1] | IC50 [2] | inhibition at 1 µM [3] | inhibition at 1 µM [4] | inhibition at 5 mg/kg [5] | IC50 [3] |
| --- | --- | --- | --- | --- | --- | --- | --- |
| O=C(O)CN1CCC2(C1)CN(c1cc(C(F)(F)F)ccc1CN1CCN(C(=O)OC(C(F)(F)F)C(F)(F)F)CC1)C2 [Example 23, 2-(2-(2-((4-(((1,1,1,3,3,3-Hexafluoropropan-2-yl)oxy)carbonyl)piperazin-1-yl)methyl)-5-(trifluoromethyl)phenyl)-2,6-diazaspiro[3.4]octan-6-yl)acetic Acid] | ≥ 75% | ≤ 0.1 µM | 1 to 10 µM | ≥ 75% | 0 to 25% | 0 to 25% | – |
| O=C(O)CN1CCCC12CN(c1cc(C(F)(F)F)ccc1CN1CCN(C(=O)OC(C(F)(F)F)C(F)(F)F)CC1)C2 [Example 24, 2-(2-(2-((4-(((1,1,1,3,3,3-Hexafluoropropan-2-yl)oxy)carbonyl)piperazin-1-yl)methyl)-5-(trifluoromethyl)phenyl)-2,5-diazaspiro[3.4]octan-5-yl)acetic Acid] | ≥ 75% | ≤ 0.1 µM | 1 to 10 µM | ≥ 75% | 0 to 25% | ≥ 75% | ≤ 0.1 µM |
| O=C(OC(C(F)(F)F)C(F)(F)F)N1CCN(Cc2ccc(Cl)cc2C2(C(=O)O)CCCC2)CC1 [Example 26, 1-(5-Chloro-2-((4-(((1,1,1,3,3,3-hexafluoropropan-2-yl)oxy)carbonyl)piperazin-1-yl)methyl)phenyl)cyclopentane-1-carboxylic Acid] | ≥ 75% | ≤ 0.1 µM | 1 to 10 µM | ≥ 75% | 0 to 25% | ≥ 75% | – |
| O=C(O)CN1CCC(c2cc(C(F)(F)F)ccc2CN2CCN(C(=O)OC(C(F)(F)F)C(F)(F)F)CC2)CC1 [Example 31, 2-(4-(2-((4-(((1,1,1,3,3,3-Hexafluoropropan-2-yl)oxy)carbonyl)piperazin-1-yl)methyl)-5-(trifluoromethyl)phenyl)piperidin-1-yl)acetic Acid] | ≥ 75% | 0.1 to 1 µM | 1 to 10 µM | ≥ 75% | 0 to 25% | 0 to 25% | – |
| O=C(O)C1CCN(C(=O)c2cc(C(F)(F)F)ccc2CN2CCN(C(=O)OC(C(F)(F)F)C(F)(F)F)CC2)CC1 [Example 35, 1-(2-((4-(((1,1,1,3,3,3-Hexafluoropropan-2-yl)oxy)carbonyl)piperazin-1-yl)methyl)-5-(trifluoromethyl)benzoyl)piperidine-4-carboxylic Acid] | ≥ 75% | 0.1 to 1 µM | 1 to 10 µM | ≥ 75% | 0 to 25% | 0 to 25% | 0.1 to 1 µM |
| O=C(OC(C(F)(F)F)C(F)(F)F)N1CCN(Cc2ccccc2C2(C(=O)O)CCCC2)CC1 [Example 36, 1-(2-((4-(((1,1,1,3,3,3-hexafluoropropan-2-yl)oxy)carbonyl)piperazin-1-yl)methyl)phenyl)cyclopentane-1-carboxylic acid] | ≥ 75% | ≤ 0.1 µM | 1 to 10 µM | ≥ 75% | 0 to 25% | ≥ 75% | – |
| O=C(OC(C(F)(F)F)C(F)(F)F)N1CCN(Cc2ccc(F)cc2C2(C(=O)O)CCCC2)CC1 [Example 40, 1-(5-fluoro-2-((4-(((1,1,1,3,3,3-hexafluoropropan-2-yl)oxy)carbonyl)piperazin-1-yl)methyl)phenyl)cyclopentane-1-carboxylic acid] | ≥ 75% | ≤ 0.1 µM | 1 to 10 µM | ≥ 75% | 0 to 25% | ≥ 75% | – |

The remaining lines, values ahead:

| inhibition at 1 µM [1] | IC50 [1] | IC50 [2] | inhibition at 1 µM [3] | inhibition at 1 µM [4] | inhibition at 5 mg/kg [5] | IC50 [3] | SMILES |
| --- | --- | --- | --- | --- | --- | --- | --- |
| ≥ 75% | ≤ 0.1 µM | 1 to 10 µM | ≥ 75% | 0 to 25% | 0 to 25% | – | O=C(O)CN1CC2(CCN(c3cc(C(F)(F)F)ccc3CN3CCN(C(=O)OC(C(F)(F)F)C(F)(F)F)CC3)C2)C1 [Example 22, 2-(6-(2-((4-(((1,1,1,3,3,3-Hexafluoropropan-2-yl)oxy)carbonyl)piperazin-1-yl)methyl)-5-(trifluoromethyl)phenyl)-2,6-diazaspiro[3.4]octan-2-yl)acetic Acid] |
| ≥ 75% | ≤ 0.1 µM | 1 to 10 µM | ≥ 75% | 0 to 25% | 0 to 25% | – | O=C(O)CN1CC2CC1CN2c1cc(C(F)(F)F)ccc1CN1CCN(C(=O)OC(C(F)(F)F)C(F)(F)F)CC1 (stereo not shown) [Example 25, 2-(5-(2-((4-(((1,1,1,3,3,3-Hexafluoropropan-2-yl)oxy)carbonyl)piperazin-1-yl)methyl)-5-(trifluoromethyl)phenyl)-2,5-diazabicyclo[2.2.1]heptan-2-yl)acetic Acid] |
| ≥ 75% | ≤ 0.1 µM | 1 to 10 µM | ≥ 75% | 0 to 25% | ≥ 75% | – | O=C(OC(C(F)(F)F)C(F)(F)F)N1CCN(Cc2ccc(C(F)F)cc2C2(C(=O)O)CCCC2)CC1 [Example 27, 1-(5-(Difluoromethyl)-2-((4-(((1,1,1,3,3,3-hexafluoropropan-2-yl)oxy)carbonyl)piperazin-1-yl)methyl)phenyl)cyclopentane-1-carboxylic Acid] |
| ≥ 75% | ≤ 0.1 µM | 1 to 10 µM | ≥ 75% | ≥ 75% | ≥ 75% | – | O=C(O)CC1CCN(c2cc(C(F)(F)F)ccc2CN2CCN(C(=O)OC(C(F)(F)F)C(F)(F)F)CC2)CC1 [Example 43, 2-(1-(2-((4-(((1,1,1,3,3,3-hexafluoropropan-2-yl)oxy)carbonyl)piperazin-1-yl)methyl)-5-(trifluoromethyl)phenyl)piperidin-4-yl)acetic acid] |
| – | ≤ 0.1 µM | 1 to 10 µM | ≥ 75% | 50 to 75% | ≥ 75% | – | O=C(OC(C(F)(F)F)C(F)(F)F)N1CCN(Cc2cccc(Cl)c2C2(C(=O)O)CCCC2)CC1 [Example 44, 1-(2-chloro-6-((4-(((1,1,1,3,3,3-hexafluoropropan-2-yl)oxy)carbonyl)piperazin1-yl)methyl)phenyl)cyclopentane-1-carboxylic acid] |

From patent publication US10899737B2, “Piperazine carbamates and methods of making and using same” (Lundbeck La Jolla Research Center, Inc., priority 2016, dated 2021)
